Assay results reported in patent US4791215A, “Derivatives of glutamic acid and aspartic acid” (priority 1984, dated 1988).
Where “and” joins values, the source holds several entries; their conditions need not be identical. Equal entries are not always repeated.

Columns and labels:
[1] = test system: endogenous opiates analgesia; experiment: Analgesic activity of endogenous opiates released by transcutaneous shock, Tail Flick Test (Experiment 3); assay type: in vivo, rats
Procedure: Experiment No. 3: Influence of several of the compounds of the invention on the analgesic activities of endogenous opiates released by transcutaneous shock in rats and measured by the Tail Flick Test
The method is that described by Lewis et al. J. Neurosc. 1, 358 […]. Male rats which have not fasted and have a weight of about 200 g are used.
The animals are stressed by the application of a 60 Hz-2.5 mA current to the front leg in pulses of a duration of 1 second every 5 seconds for 20 minutes.
This stress regime induces the release of endogenous opiates.

[2] = test system: CCK-8 induced contraction of guinea pig gall bladder; experiment: Anti-CCK activity on gall bladder strips in vitro; conditions: CCK-8 10 ng/ml
Method in brief: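 Longitudinal guinea pig gall bladder strips in Krebs at 32 °C, gassed with O2/CO2 95:5, were contracted with 10 ng/ml CCK-8. Isometric force was recorded across several compound concentrations, and ED50 was taken as the μg/ml concentration antagonising 50% of the CCK contraction.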

[3] = test system: biliary flow; experiment: Biliary flow (choleretic activity); assay type: in vivo, rat; conditions: for ED50: Rattus norvegicus, iv, average over 2 hours, read-out: ED50 (dose causing 50% increase in biliary flow)
Method in brief: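 In urethane-anaesthetised rats with bile duct cannulated, bile collected 1 h before and 2 h after intravenous compound dosing. Samples weighed at 30 minute intervals; 0.5 ml physiological solution given every 30 minutes to prevent dehydration.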

[4] = test system: tolerance induced by morphine; experiment: Antagonism to development of tolerance to repeated morphine HCl, Tail Flick Test (Experiment 5); conditions: compound 10 mg/kg + morphine 5 mg/kg i.p.
Procedure: Experiment No. 5: Antagonism of several products of the invention to the development of tolerance induced in rats by the repeated administration of morphine HCl.
Several of the compounds of the invention were examined to determine their possible capacity to antagonise the development of tolerance induced by morphine. Groups of 6 male rats having a weight of about 200-250 grams were used.
At intervals of 24 hours from the first treatment (time 0) each animal (except the control group treated physiologically) received 5 mg/kg of morphine hydrochloride i.p. together with 10 mg/kg i.p. of the compounds indicated (with the exception of the group treated solely with morphine).
The determination of the pain threshold was effected 15', 30', 45' and 60' from the treatment by the Tail Flick Test.

[5] = Body weight on daily oral dosing; assay type: in vivo, rats
Procedure: (§1) In order to check the hypothesis that the anti-CCK activity shown by most of the compounds in question may be used to advantage in the treatment of anorexia in man or as an appetite stimulant for farm animals, the following experiment was carried out:
(§2) Male rats having a weight of about 160 g, divided into groups of 10 animals, were used. […]
(§3) The drug, in the form of the sodium salt, was dissolved in water and administered in a volume of 10 ml of H2 O/kg while the control group received an equal volume of the solvent alone.
(§4) The following tables give the average values of the food consumption and the average weight of each group of animals, calculated weekly as well as the Student's t value calculated from the various treated groups and the group of control animals.

[6] = Food consumption on daily oral dosing; assay type: in vivo, rats
Procedure: as §1, §2, §3, §4

[7] = compound 1 mg/kg iv + stress, 5'
[8] = compound 1 mg/kg iv + stress, 10'
[9] = compound 1 mg/kg iv + stress, 15'
[10] = compound 3 mg/kg iv + stress, 5'
[11] = compound 3 mg/kg iv + stress, 10'
[12] = compound 3 mg/kg iv + stress, 15'

SMILES: CCCN(CCC)C(=O)C(CCC(=O)O)NC(=O)c1ccc(C(C)C)cc1 (stereo not shown) [Compound C-36]
- average latency, Tail Flick [1, 7]: 6.9 ± 0.74 s
- average latency, Tail Flick [1, 8]: 6.5 ± 0.42 s
- average latency, Tail Flick [1, 9]: 4.66 ± 0.55 s
- average latency, Tail Flick [1, 10]: 9.22 ± 0.67 s
- average latency, Tail Flick [1, 11]: 8.1 ± 0.43 s
- average latency, Tail Flick [1, 12]: 9.28 ± 0.64 s
- ED50 (concentration antagonising 50% of contracting effect of CCK-8) [2]: 13.4 µg/mL
- % increase in biliary flow with respect to controls ([3]; 12.5 mg/kg i.v.): +15.5%
- % increase in biliary flow with respect to controls ([3]; 25 mg/kg i.v.): +48.5%
- % increase in biliary flow with respect to controls ([3]; 100 mg/kg i.v.): +215.8%
- ED50 [3]: 26.8 mg/kg

SMILES: CCCN(CCC)C(=O)C(CCC(=O)O)NC(=O)c1cccc(C#N)c1 (stereo not shown) [Compound C-20]
- average latency, Tail Flick [1, 7]: 7.5 ± 0.3 s
- average latency, Tail Flick [1, 8]: 5.34 ± 0.46 s
- average latency, Tail Flick [1, 9]: 3.88 ± 0.29 s
- average latency, Tail Flick [1, 10]: 8.48 ± 0.62 s
- average latency, Tail Flick [1, 11]: 6.42 ± 0.21 s
- average latency, Tail Flick [1, 12]: 4.98 ± 0.36 s
- ED50 (concentration antagonising 50% of contracting effect of CCK-8) [2]: > 200 µg/mL
- % increase in biliary flow with respect to controls ([3]; 12.5 mg/kg i.v.): +48.5%
- % increase in biliary flow with respect to controls ([3]; 25 mg/kg i.v.): +63.9%
- % increase in biliary flow with respect to controls ([3]; 50 mg/kg i.v.): +108.0%
- ED50 [3]: 19.4 mg/kg
- percentage variation in latency time (Effect %) ([4]; 24 h): 53.36%
- percentage variation in latency time (Effect %) ([4]; 48 h): 48.17%
- percentage variation in latency time (Effect %) ([4]; 72 h): 53.67%
- percentage variation in latency time (Effect %) ([4]; 96 h): 31.56%
- percentage variation in latency time (Effect %) ([4]; 120 h): 41.67%
- percentage variation in latency time (Effect %) ([4]; 144 h): 14.48%
- percentage variation in latency time (Effect %) ([4]; 168 h): 13.75%
- percentage variation in latency time (Effect %) ([4]; time 0): 72.15%

SMILES: CCCN(CCC)C(=O)C(CCC(=O)O)NC(=O)c1ccc(C)c(C)c1 (stereo not shown) [Compound C-30]
- average latency, Tail Flick [1, 7]: 7.26 ± 0.52 s
- average latency, Tail Flick [1, 8]: 6.10 ± 0.49 s
- average latency, Tail Flick [1, 9]: 4.68 ± 0.5 s
- average latency, Tail Flick [1, 10]: 9.46 ± 0.64 s
- average latency, Tail Flick [1, 11]: 7.96 ± 0.61 s
- average latency, Tail Flick [1, 12]: 6.82 ± 0.78 s
- ED50 (concentration antagonising 50% of contracting effect of CCK-8) [2]: 33.5 µg/mL
- % increase in biliary flow with respect to controls ([3]; 12.5 mg/kg i.v.): +33.7%
- % increase in biliary flow with respect to controls ([3]; 25 mg/kg i.v.): +60.2%
- % increase in biliary flow with respect to controls ([3]; 50 mg/kg i.v.): +121.2%
- % increase in biliary flow with respect to controls ([3]; 100 mg/kg i.v.): +197.8%
- ED50 [3]: 18.5 mg/kg
- body weight ([5]; 3 mg/kg os, time 0): 270.8 ± 8.3 g
- body weight ([5]; 3 mg/kg os, week 1): 310.2 ± 7.01 g
- body weight ([5]; 3 mg/kg os, week 2): 380.5 ± 6.5 g
- body weight ([5]; 3 mg/kg os, week 3): 409.7 ± 2.99 g
- body weight ([5]; 3 mg/kg os, week 4): 437.3 ± 55 g
- body weight ([5]; 10 mg/kg os, time 0): 271.4 ± 9.3 g
- body weight ([5]; 10 mg/kg os, week 1): 332.9 ± 5.7 g
- body weight ([5]; 10 mg/kg os, week 2): 383.2 ± 6.5 g
- body weight ([5]; 10 mg/kg os, week 3): 439.1 ± 4.3 g
- body weight ([5]; 10 mg/kg os, week 4): 470.5 ± 6.5 g
- body weight ([5]; 30 mg/kg os, time 0): 267.9 ± 7.7 g
- body weight ([5]; 30 mg/kg os, week 1): 315.7 ± 7.4 g
- body weight ([5]; 30 mg/kg os, week 2): 371.9 ± 7.9 g
- body weight ([5]; 30 mg/kg os, week 3): 437.1 ± 5.2 g
- body weight ([5]; 30 mg/kg os, week 4): 488.1 ± 6.4 g
- food consumption ([6]; 3 mg/kg os, week 1): 193.7 ± 3.58 g/week
- food consumption ([6]; 3 mg/kg os, week 2): 233.2 ± 4.56 g/week
- food consumption ([6]; 3 mg/kg os, week 3): 187.1 ± 8.40 g/week
- food consumption ([6]; 3 mg/kg os, week 4): 204.0 ± 3.63 g/week
- food consumption ([6]; 10 mg/kg os, week 1): 219.8 ± 5.62 g/week
- food consumption ([6]; 10 mg/kg os, week 2): 264.3 ± 5.61 g/week
- food consumption ([6]; 10 mg/kg os, week 3): 234.5 ± 5.05 g/week
- food consumption ([6]; 10 mg/kg os, week 4): 234.6 ± 3.99 g/week
- food consumption ([6]; 30 mg/kg os, week 1): 233.7 ± 5.45 g/week
- food consumption ([6]; 30 mg/kg os, week 2): 267.9 ± 4.92 g/week
- food consumption ([6]; 30 mg/kg os, week 3): 247.0 ± 5.19 g/week
- food consumption ([6]; 30 mg/kg os, week 4): 244.5 ± 4.06 g/week
- percentage variation in latency time (Effect %) ([4]; 24 h): 66.53% and 67.27%
- percentage variation in latency time (Effect %) ([4]; 48 h): 50.61% and 67.31%
- percentage variation in latency time (Effect %) ([4]; 72 h): 47.53% and 56.04%
- percentage variation in latency time (Effect %) ([4]; 96 h): 29.65% and 49.48%
- percentage variation in latency time (Effect %) ([4]; 120 h): 34.24% and 34.34%
- percentage variation in latency time (Effect %) ([4]; 144 h): 26.97% and 27.50%
- percentage variation in latency time (Effect %) ([4]; time 0): 74.51% and 44.52%

SMILES: CCCCN(CCCC)C(=O)CCC(NC(=O)c1ccc(Cl)c(Cl)c1)C(=O)O [Compound D-2]
- average latency, Tail Flick [1, 7]: 9.2 ± 0.53 s
- average latency, Tail Flick [1, 8]: 7.0 ± 0.86 s
- average latency, Tail Flick [1, 9]: 5.28 ± 0.64 s
- average latency, Tail Flick [1, 10]: 9.6 ± 0.46 s
- average latency, Tail Flick [1, 11]: 7.24 ± 0.58 s
- average latency, Tail Flick [1, 12]: 5.08 ± 0.52 s
- ED50 (concentration antagonising 50% of contracting effect of CCK-8) [2]: > 200 µg/mL
- percentage variation in latency time (Effect %) ([4]; 24 h): 45.73%
- percentage variation in latency time (Effect %) ([4]; 48 h): 59.50%
- percentage variation in latency time (Effect %) ([4]; 72 h): 51.52%
- percentage variation in latency time (Effect %) ([4]; 96 h): 43.40%
- percentage variation in latency time (Effect %) ([4]; 120 h): 37.60%
- percentage variation in latency time (Effect %) ([4]; 144 h): 21.43%
- percentage variation in latency time (Effect %) ([4]; 168 h): 29.75%
- percentage variation in latency time (Effect %) ([4]; time 0): 74.14%
